Measurements taken from ChEMBL document CHEMBL6120963, “Discovery of Novel PROTAC SIRT6 Degraders with Potent Efficacy against Hepatocellular Carcinoma” (J Med Chem, 2024).
The source made the active and inactive calls. The calls are words filed in the database; no cut-off is given here.

Legend:
[1] = target: T1, Protein cereblon/NAD-dependent protein deacylase sirtuin-6 (Homo sapiens, UniProt Q8N6T7+Q96SW2); test: PROTAC activity at CRBN/SIRT6 in human SK-HEP1 cells assessed as induction of SIRT6 degradation at 2.5 uM incubated for 36 hrs by proteomic analysis; type: cell-based
T1 sequence (Q8N6T7 2-355 limits assumed): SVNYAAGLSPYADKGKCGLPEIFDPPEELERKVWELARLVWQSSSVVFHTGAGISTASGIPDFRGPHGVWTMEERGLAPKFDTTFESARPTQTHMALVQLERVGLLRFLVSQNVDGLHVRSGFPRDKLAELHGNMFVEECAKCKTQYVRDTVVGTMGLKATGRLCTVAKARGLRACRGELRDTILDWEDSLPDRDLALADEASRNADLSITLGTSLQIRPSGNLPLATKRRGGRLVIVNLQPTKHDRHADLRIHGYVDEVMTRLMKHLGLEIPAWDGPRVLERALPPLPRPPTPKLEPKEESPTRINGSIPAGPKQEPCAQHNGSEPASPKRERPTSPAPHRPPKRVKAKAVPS
T1 sequence (Q96SW2 whole entry partner): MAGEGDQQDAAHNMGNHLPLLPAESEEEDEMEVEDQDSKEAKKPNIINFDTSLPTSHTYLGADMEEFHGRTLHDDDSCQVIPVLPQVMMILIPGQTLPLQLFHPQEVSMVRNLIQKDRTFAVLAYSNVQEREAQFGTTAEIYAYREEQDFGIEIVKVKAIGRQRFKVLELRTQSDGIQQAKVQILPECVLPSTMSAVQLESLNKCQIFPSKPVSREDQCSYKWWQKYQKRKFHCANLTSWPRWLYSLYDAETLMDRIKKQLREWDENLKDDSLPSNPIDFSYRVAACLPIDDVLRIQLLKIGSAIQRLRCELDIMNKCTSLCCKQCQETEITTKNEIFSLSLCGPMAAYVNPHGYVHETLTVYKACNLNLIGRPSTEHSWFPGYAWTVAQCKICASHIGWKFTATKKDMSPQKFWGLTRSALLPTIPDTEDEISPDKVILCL

[2] = tested on: Huh-7; test: Effect on SIRT1 expression in human Huh-7 cells at 0.002 to 1 uM incubated for 36 hrs by Western blot analysis; type: functional, cell-based; conditions: dose 0.002-1 µM
[3] = target: T1, Protein cereblon/NAD-dependent protein deacylase sirtuin-6; test: PROTAC activity at CRBN/SIRT6 in human SK-HEP1 cells assessed as induction of SIRT6 degradation at 2 uM incubated for 36 hrs by In-Cell ELISA relative to control; type: cell-based
[4] = tested on: SK-HEP1; test: Antitumor activity against human SK-HEP1 cells xenografted in BALB/c nude mouse assessed as tumor growth suppression at 10 mg/kg treated for 28 to 30 days; type: functional, organism-based; conditions: time 28-30 day
[5] = Toxicity in BALB/c nude mouse xenografted with human SK-HEP1 cells assessed as body weight loss at 10 mg/kg treated for 28 to 30 days; type: organism-based; conditions: in vivo, time 28-30 day
[6] = target: T1, Protein cereblon/NAD-dependent protein deacylase sirtuin-6; test: PROTAC activity at CRBN/SIRT6 in human SK-HEP1 cells assessed as reduction in number of SIRT6 foci incubated for about 36 hrs by immunofluorescence based analysis; type: cell-based; conditions: dose <= 5.0 µM
[7] = tested on: SK-HEP1; test: Inhibition of cell proliferation of human SK-HEP1 cells xenografted in BALB/c nude mouse at 10 mg/kg treated for 28 to 30 days under irradiation (3 Gy); type: functional, organism-based; conditions: time 28-30 day
[8] = tested on: SK-HEP1; test: Synergistic antitumor activity against human SK-HEP1 cells xenografted in BALB/c nude mouse at 10 mg/kg treated for 28 to 30 days in presence of sorafenib relative to control; type: functional; conditions: time 28-30 day
[9] = Toxicity in BALB/c nude mouse xenografted with human SK-HEP1 cells assessed as pathological damage in liver at 10 mg/kg treated for 28 to 30 days in presence of sorafenib by H and E staining based analysis; type: organism-based; conditions: in vivo, time 28-30 day
[10] = tested on: SK-HEP1; test: Effect of SIRT2 mRNA expression in human SK-HEP1 cells at 2.5 uM incubated for 36 hrs by RT-qPCR analysis; type: functional, cell-based
[11] = tested on: SK-HEP1; test: Inhibition of colony formation in human SK-HEP1 cells at 5 to 10 uM incubated for 10 to 14 days with replacement of medium containing compounds on every 3 days by crystal violet staining based analysis; type: functional, cell-based; conditions: dose 5-10 µM, time 10-14 day
[12] = tested on: SK-HEP1; test: Inhibition of colony formation in human SK-HEP1 cells at 5 uM incubated for 10 to 14 days with replacement of medium containing compounds on every 3 days combined with irradiation (3 Gy) by crystal violet staining based analysis; type: functional, cell-based; conditions: time 10-14 day
[13] = tested on: SK-HEP1; test: Inhibition of colony formation in human SK-HEP1 cells at 2.5 uM incubated for 10 to 14 days with replacement of medium containing compounds on every 3 days combined with irradiation (3 Gy) by crystal violet staining based analysis; type: functional, cell-based; conditions: time 10-14 day
[14] = tested on: SK-HEP1; test: Effect of ABI3BP mRNA expression in human SK-HEP1 cells at 2.5 uM incubated for 36 hrs by RNA sequencing analysis; type: functional, cell-based
[15] = target: T1, Protein cereblon/NAD-dependent protein deacylase sirtuin-6; test: PROTAC activity at CRBN/SIRT6 in human SK-HEP1 cells assessed as disruption of CHD4 recruitment to DSB sites at 2.5 uM incubated for 36 hrs followed by CPT treatment for 4 hrs by Western blot analysis; type: cell-based; conditions: time 40.0 hrs
[16] = tested on: SK-HEP1; test: Cytotoxicity against human SK-HEP1 cells harboring SIRT6 siRNA incubated for 72 hrs by CCK8 assay; type: functional, cell-based
[17] = target: T1, Protein cereblon/NAD-dependent protein deacylase sirtuin-6; test: PROTAC activity at CRBN/SIRT6 in human Huh-7 cells assessed as induction of SIRT6 degradation upto 10 uM incubated for 36 hrs by Western blot analysis relative to control; type: cell-based
[18] = tested on: SK-HEP1; test: Downregulation of CCPG1 expression in human SK-HEP1 cells at 2.5 uM incubated for 36 hrs in presence of MLN4924; type: functional, cell-based
[19] = target: T1, Protein cereblon/NAD-dependent protein deacylase sirtuin-6; test: PROTAC activity at CRBN/SIRT6 in human SK-HEP1 cells assessed as induction of SIRT6 degradation at 0.02 to 5 uM incubated for 36 hrs by Western blot analysis; type: cell-based; conditions: dose 0.02-5 µM
[20] = Toxicity in BALB/c nude mouse xenografted with human SK-HEP1 cells assessed as histopathological abnormalities in lungs at 10 mg/kg treated for 28 to 30 days by H and E staining based analysis; type: organism-based; conditions: in vivo, time 28-30 day
[21] = target: T1, Protein cereblon/NAD-dependent protein deacylase sirtuin-6; test: PROTAC activity at CRBN/SIRT6 in human SK-HEP1 cells assessed as disruption of CHD4 recruitment to DSB sites at 2.5 uM incubated for 36 hrs followed by irradiation (10 Gy) treatment for 4 hrs by Western blot analysis; type: cell-based; conditions: time 40.0 hrs
[22] = target: T1, Protein cereblon/NAD-dependent protein deacylase sirtuin-6; test: PROTAC activity at CRBN/SIRT6 in pomalidomide-treated human SK-HEP1 cells assessed as induction of SIRT6 degradation at 2.5 uM treated for 36 hrs by Western blot analysis; type: cell-based
[23] = target: T1, Protein cereblon/NAD-dependent protein deacylase sirtuin-6; test: PROTAC activity at CRBN/SIRT6 in MG132-treated human SK-HEP1 cells assessed as induction of SIRT6 degradation at 2.5 uM treated for 36 hrs by Western blot analysis; type: cell-based
[24] = tested on: SK-HEP1; test: Induction of apoptosis in human SK-HEP1 cells at 2.5 uM preincubated for 36 hrs followed by irradiation (3 Gy) by Annexin V-FITC/PI staining based flow cytometry; type: functional, cell-based
[25] = target: T1, Protein cereblon/NAD-dependent protein deacylase sirtuin-6; test: PROTAC activity at CRBN/SIRT6 in human U2OS cells with DNA repair assessed as inhibition of CHD4 loading onto chromatin incubated for 36 hrs by FACS analysis; type: cell-based
[26] = Toxicity in BALB/c nude mouse xenografted with human SK-HEP1 cells assessed as histopathological abnormalities in lungs at 10 mg/kg treated for 28 to 30 days in presence of sorafenib by H and E staining based analysis; type: organism-based; conditions: in vivo, time 28-30 day
[27] = Toxicity in BALB/c nude mouse xenografted with human SK-HEP1 cells assessed as pathological damage in lungs at 10 mg/kg treated for 28 to 30 days under irradiation (3 Gy) by H and E staining based analysis; type: organism-based; conditions: in vivo, time 28-30 day
[28] = target: T1, Protein cereblon/NAD-dependent protein deacylase sirtuin-6; test: PROTAC activity at CRBN/SIRT6 in human SK-HEP1 cells assessed as induction of SIRT6 degradation at 200 nM incubated for 36 hrs by In-Cell ELISA relative to control; type: cell-based
[29] = target: T1, Protein cereblon/NAD-dependent protein deacylase sirtuin-6; test: In vivo PROTAC activity of CRBN/SIRT6 in human SK-HEP1 cells xenografted in BALB/c nude mouse assessed as induction of SIRT6 degradation at 10 mg/kg treated for 28 to 30 days under irradiation (3 Gy); type: functional, organism-based; conditions: time 28-30 day
[30] = target: T1, Protein cereblon/NAD-dependent protein deacylase sirtuin-6; test: PROTAC activity at CRBN/SIRT6 in human SK-HEP1 cells assessed as induction of SIRT6 degradation at 2.5 uM incubated for 36 hrs by Western blot analysis; type: cell-based
[31] = target: T1, Protein cereblon/NAD-dependent protein deacylase sirtuin-6; test: PROTAC activity at CRBN/SIRT6 in human SK-HEP1 cells assessed as induction of SIRT6 degradation at 1 uM pretreated for 36 hrs followed by compound washout measured for 36 hrs by Western blot analysis; type: cell-based
[32] = tested on: SK-HEP1; test: Effect of POSTN mRNA expression in human SK-HEP1 cells at 2.5 uM incubated for 36 hrs by RNA sequencing analysis; type: functional, cell-based

## Nc1cc(N2CCN(CC3CCN(c4cc5c(cc4F)C(=O)N(C4CCC(=O)NC4=O)C5=O)CC3)CC2)ccc1[N+](=O)[O-] (configuration not stated)
[1]
  Activity: Active
[2]
  Activity: No effect
[3]
  Activity: 92.5%
[4]
  Activity: Active
[5]
  Activity: Non-toxic
[6]
  Activity: Dose-dependent-effect
[7]
  inhibition: Active
[8]
  T/C: 18.2%
[9]
  Activity: Non-toxic
[10]
  Activity: No effect
[11]
  inhibition: Active
[12]
  inhibition: Not active; Exhibited Weaker Inhibition
[13]
  inhibition: Active; Exhibited Superior To Compound Alone
[14]
  Activity: Active
[15]
  Activity: Active
[16]
  Activity: inactive
[17]
  Emax: 91.8%
[18]
  Activity: inactive
[19]
  Activity: Active
[20]
  Activity: Non-toxic
[21]
  Activity: Active
[22]
  Activity: inactive
[23]
  Activity: Not active; Confirms That Proteosome Is Necessary For Sirt6 Degradation
[24]
  Activity: Active; Significant Effect Was Observed Before Being Exposed To Ir
[25]
  inhibition: Active; Results In Decrease In Hr And Nhej Efficiencies
[26]
  Activity: Non-toxic
[27]
  Activity: Non-toxic
[28]
  Activity: 67.7%
[29]
  Activity: Active
[30]
  Activity: Active
[31]
  Activity: Not active; Sirt6 Level Slowly Recovered Within 24 Hrs After Treatment
[32]
  Activity: Active
